From patent US20240067604A1, “COMBINATIONS OF IRS/STAT3 DUAL MODULATORS AND ANTI PD-1/PD-L1 ANTIBODIES FOR TREATING CANCER” (TYRNOVO LTD., priority 2017, published 2024)

System: esophagogastric junction adenocarcinoma patient-derived xenograft (PDX)
Assay: Patient-derived xenograft (PDX) of esophagogastric junction adenocarcinoma in NodScid mice supplemented with PBMCs from the same patient (double autologous)
Assay type: in vivo, NodScid mice (human tumor and PBMCs)
Conditions: PDX SC in NodScid mice + patient PBMCs; Compound 4 70 mg/kg IV and/or Keytruda 6 mg/kg IP on days 0, 5 and 11; treatment started at ~160 mm^3; sacrificed on day 18
From the text: Patient-derived xenograft (PDX) of esophagogastric junction adenocarcinoma biopsy subcutaneous (SC) implanted into NodScid mice. At the first day of treatment peripheral blood mononuclear cells (PBMCs) from the same patient were intravenous injected to the mice (double autologous).
Fresh human primary esophagogastric junction adenocarcinoma biopsy was subcutaneously (SC) implanted into NSG mice (P0).
Subcutaneous implantation of human primary tumor biopsy into NodScid mice.
The tumor (P3) was extracted from the mice, measured, cut into small pieces of 1-2 mm and transferred into the gentleMACS Tube containing the sterile saline. […] Animals were observed and monitored for any discomfort and immobility day by day.
Isolation of human PBMCs: Human PBMCs were isolated from heparinized venous blood samples of the same esophagus adenocarcinoma patient by density gradient centrifugation method using Ficol Histopaque (Sigma). […] The total cell number and the number of viable cells were evaluated. […] On the day of injection, the cells were thawed, washed twice in order to dilute possible DMSO residues by the addition of PBS and centrifugation (600 g for 10 minutes, RT) and viable cells were counted. […]
The length (l) and the width (w) of the tumors were measured 4-5 times a week and the volumes of the tumors were calculated as follows: v=lw^2/2. […]

Question: How did the “Tumor response / tumor progression (tumor volume, FIG. 1)” value turn out when `Oc1cc(CNC(=S)/C=C/c2ccc(O)c(O)c2Br)cc(O)c1O` [Compound 4] was run?
Answer: no response
